# Measured values: PMC6114103, “17-DMAG inhibits the multiplication of several Babesia species and Theileria equi on in vitro cultures, and Babesia microti in mice” (International Journal for Parasitology: Drugs and Drug …, 2018)
# Legend:
# [1] = system: B. microti (Munich strain); assay: inhibition assay using a B. microti-infected mouse model; type: in vivo, BALB/c mice; conditions: 5 consecutive days; for day p.i. on which parasite no longer detected in blood smears via microscopy (parasite clearance): 17-DMAG + DA 15 + 15, 17-DMAG + AV 15 + 10, DA + AV 15 + 10 mg/kg BW
# Description: B. microti (Munich strain) was recovered from -80 °C stock in two 6-week female Balb/c mice (Clea, Japan). The parasitemia was monitored every 2 days. […] The inhibitory effect of 17-DMAG was also determined using a B. microti mouse model according to the previous protocol ([Goo et al., 2010]). Briefly, 35 female BALB/c mice aged 8 weeks received an intraperitoneal injection of 1 × 10^7 of B. microti-infected RBC and were divided into seven groups. Another group consisting of five mice was kept uninfected and untreated as a control. The multiplication of B. microti was observed from blood smears after staining with Giemsa using a light microscope. The drug treatment was initiated to all infected mice on day five, after the parasitemia reached approximately 1%, and continue to the total of five consecutive days. Group 1 was treated with 4% DMSO in saline water as a control intraperitoneally. […] The parasitemia was estimated from Giemsa-stained blood smears using microscopy in approximately 5000 RBC. Furthermore, the hematology profiles including RBC, hemoglobin, and hematocrit were measured from 10 μl of mouse blood using an automatic hematology analyzer (Celltac α MEK-6450, Nihon Kohden, Tokyo, Japan). The rate of parasitemia, hematology profiles, and mouse body weight was monitored for 60 days. The experiment was repeated once so each group contained 10 mice. […] Combination index (CI) values for the drug combination were calculated using CompuSyn software ([Chou, 2006]). […] The differences among groups regarding the parasitemia, hematology profiles, and body weight in the B. microti-infected mouse model were analyzed using Student's t-test, available in GraphPad Prism software. The difference was considered significant if P < 0.05.
# [2] = introduction, background statement; ref Jilani et al., 2013; cited from earlier work
# [3] = system: B. bigemina (Argentina strain); assay: in vitro multiplication inhibition assay (SYBR Green I fluorescence, 96 h), single drugs and two-drug combinations; type: cell-based, Babesia bigemina; conditions: for IC50: Babesia bigemina, B. bigemina, 96 h, triplicate, mean ± SD, read-out: IC50 on in vitro culture of parasites; for Selectivity index MDBK: ratio IC50 MDBK to IC50 B. bigemina; for Selectivity index NIH/3T3: ratio IC50 NIH/3T3 to IC50 B. bigemina
# Description: Babesia parasite cultures were maintained using a microaerophilic stationary-phase culture system ([Levy and Ristic, 1980]; [Avarzed et al., 1997]; [Igarashi et al., 1998]). Briefly, bovine Babesia parasites were grown in bovine red blood cells (RBC) in the specific complete medium for each species. The medium for B. bovis (Texas strain) contained GIT medium supplemented with 10% bovine serum, while the medium for B. bigemina (Argentina strain) and B. divergens (Germany strain) was Medium 199 and RPMI 1640 medium, respectively, supplemented with 40% bovine serum ([Rizk et al., 2016]). B. caballi (USDA strain) was grown using equine RBC in GIT medium supplemented with 10% equine serum. T. equi (USDA strain) was grown in equine RBC in M199 medium supplemented with 40% equine serum and hypoxanthine (MP Biomedicals, USA) at a final concentration of 13.6 μg/ml. All of the media included 60 U/ml penicillin G, 60 μg/ml streptomycin, and 0.15 μg/ml amphotericin B (Sigma-Aldrich, USA). The cultures were incubated at 37 °C in a humidified chamber with an atmosphere of 5% CO2, 5% O2, and 90% N2.
# The assays were conducted in accordance with the protocol described previously with modification ([Guswanto et al., 2014]). Briefly, the cultures of B. bovis, B. bigemina, B. divergens, B. caballi, and T. equi with a parasitemia of 8%, 3%, 10%, 4%, and 9%, respectively, were harvested and adjusted to 1% parasitemia with fresh RBC before the inhibition assay. The 60 inner wells of a 96-well plate were used in the assay, while the peripheral wells were filled with sterile distillate water to reduce evaporation during incubation. To each well in triplicate, 2.5 μl of infected RBC (5 μl for B. divergens, B. caballi, and T. equi) was added and mixed with a culture medium containing the drug to a total volume of 100 μl. The stock solution of 17-DMAG, DA, and AV was dissolved in a culture medium at various concentrations using two-fold dilution. A culture medium containing DMSO at a final concentration of 0.2% was added to the well with infected RBC as a positive control and to the well with uninfected RBC as a negative control. Furthermore, a drug combination assay was conducted in parallel with the single drug assay at the constant ratio in accordance with the Chou–Talalay method ([Chou, 2006]). In the same plate with a single drug inhibition assay, a two-drug combination (DA+17-DMAG, DA + AV, and 17-DMAG + AV) at concentrations of 0.25 x IC50, 0.5 x IC50, IC50, 2 x IC50, and 4 x IC50 was added to the well containing infected RBC in triplicate. The plate was incubated in a humidified incubator with 5% CO2, 5% O2, and 90% N2. After 96 h, 100 μl of a lysis buffer containing SYBR Green I was added to each well. The plate was wrapped with aluminum foil to avoid direct light exposure and incubated at room temperature. After incubation for 6 h, fluorescence values were measured using a fluorescence spectrophotometer (Fluoroskan Ascent, Thermo Fisher Scientific, USA) with the excitation and emission wavelength at 485 nm and 518 nm, respectively. The fluorescence data were subtracted from the negative control and used to calculate the IC50.
# The IC50 of 17-DMAG, DA, and AV was calculated from the percentage of inhibition on the in vitro multiplication of all tested species using non-linear regression (curve fit), available in GraphPad Prism (GraphPad Software Inc., USA). Combination index (CI) values for the drug combination were calculated using CompuSyn software ([Chou, 2006]). Since the chemotherapy effect is preferable at the highest inhibition, the degree of synergism was determined as the weighted average of CI values using a formula ((1 x IC50) + (2 x IC75) + (3 x IC90) + (4 x IC95))/10 ([Chou, 2006]). The differences among groups regarding the parasitemia, hematology profiles, and body weight in the B. microti–infected mouse model were analyzed using Student's t-test, available in GraphPad Prism software.
# T. equi = assay: effect of 17-DMAG on host erythrocytes: parasite subculture in pretreated equine RBC; type: cell-based, Theileria equi; conditions: equine RBC incubated with 1 μM for 3 h, parasitemia 4 days
# Description: Prior to the subculture of parasites, bovine and equine RBC were incubated with 1 μM of 17-DMAG for 3 h. The RBC were washed three times with PBS and mixed with B. bovis and T. equi parasitized RBC to obtain 1% parasitemia (infected RBC). Subsequently, 100 μl of infected RBC was added to 900 μl of complete medium in a 24-well plate. The untreated erythrocytes were used as a control. The parasitemia was monitored daily via microscopy observation of a Giemsa-stained blood smear for 4 days. Furthermore, the effect of 17-DMAG on mice was evaluated using 8-week-old BALB/c mice. Groups 1 and 2, consisting of three mice each, received intraperitoneal injections of 17-DMAG at a concentration of 15 and 30 mg/kg BW, respectively, for 5 days. One group (three mice) remained as an untreated control.
# [4] = 17-DMAG 30, DA 25, AV 20 mg/kg BW
Structure (SMILES),"peak parasitemia ([1]; 17-DMAG 30 mg/kg BW intraperitoneal, peak on day 10 p.i., 10 mice)","day p.i. on which parasite no longer detected in blood smears via microscopy (parasite clearance) [1, 4]","inhibition of the multiplication of B. microti in mice ([1]; 17-DMAG 30, DA 25, AV 20 mg/kg BW, combinations 17-DMAG 15 with DA 15 or AV 10 mg/kg BW)",solubility [2],IC50 [3],Selectivity index MDBK [3],Selectivity index NIH/3T3 [3],multiplication of T. equi in 17-DMAG-treated RBC versus normal RBC (T. equi)
"CO[C@H]1/C=C\C=C(/C)C(=O)NC2=CC(=O)C(NCCN(C)C)=C(C[C@@H](C)C[C@H](OC)[C@H](O)[C@@H](C)/C=C(\C)[C@@H]1OC(N)=O)C2=O [17-DMAG, 17-dimethylaminoethylamino-17-demethoxygeldanamycin]",4.7 ± 2.0%,36 day p.i.,effectively inhibited,water soluble,0.0624 ± 0.0019 µM,141,248,did not significantly differ
"O=C1C(O)=C([C@H]2CC[C@H](c3ccc(Cl)cc3)CC2)C(=O)c2ccccc21 [AV, atovaquone]",,≤ 28 day p.i.,,,0.706 ± 0.0387 µM,>57,>57,
